This passage reports IC50 results from patent US20090311217A1, “3-SUBSTITUTED-1H-INDOLE COMPOUNDS, THEIR USE AS MTOR KINASE AND PI3 KINASE INHIBITORS, AND THEIR SYNTHESES” (priority 2008, published 2009).

Common to all, as to format: biochemical
The target of one experiment is PI3K-alpha (Homo sapiens, UniProt P42336). The experiment in a line: PI3K-alpha fluorescence polarization assay. Particulars: read-out: PI3Kα Avg. IC50. On the technique in general: In fluorescence polarisation assays a small probe gives low polarisation when free and higher when bound to something large.
For a further experiment, the target named is PI3K-gamma (Homo sapiens, UniProt P48736). The experiment in a line: PI3K-gamma fluorescence polarization assay. An outline of the steps:
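Enzyme 5 ng; substrate diC8-PI(4,5)P2 2.5 μM; ATP 25 μM; 5 mM HEPES pH 7, 2.5 mM MgCl2; DMSO ≤2%; 1 h, 25° C. Quench 10 mM EDTA. Detect with GRP1 PH domain 100 nM + TMR-IP4 probe 5 nM by polarization.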

The next experiment addresses T1, human TOR (Homo sapiens, UniProt P42345).
T1 construct: FLAG
Kind of experiment: mTOR enzyme assay (DELFIA, His6-S6K substrate). Particulars: read-out: mTOR Kinase Avg. IC50.

Each structure is given as a SMILES string. Read-outs that look alike come from different tables or passages of the source.

Sequence of PI3K-alpha (P42336 whole entry, species assumed): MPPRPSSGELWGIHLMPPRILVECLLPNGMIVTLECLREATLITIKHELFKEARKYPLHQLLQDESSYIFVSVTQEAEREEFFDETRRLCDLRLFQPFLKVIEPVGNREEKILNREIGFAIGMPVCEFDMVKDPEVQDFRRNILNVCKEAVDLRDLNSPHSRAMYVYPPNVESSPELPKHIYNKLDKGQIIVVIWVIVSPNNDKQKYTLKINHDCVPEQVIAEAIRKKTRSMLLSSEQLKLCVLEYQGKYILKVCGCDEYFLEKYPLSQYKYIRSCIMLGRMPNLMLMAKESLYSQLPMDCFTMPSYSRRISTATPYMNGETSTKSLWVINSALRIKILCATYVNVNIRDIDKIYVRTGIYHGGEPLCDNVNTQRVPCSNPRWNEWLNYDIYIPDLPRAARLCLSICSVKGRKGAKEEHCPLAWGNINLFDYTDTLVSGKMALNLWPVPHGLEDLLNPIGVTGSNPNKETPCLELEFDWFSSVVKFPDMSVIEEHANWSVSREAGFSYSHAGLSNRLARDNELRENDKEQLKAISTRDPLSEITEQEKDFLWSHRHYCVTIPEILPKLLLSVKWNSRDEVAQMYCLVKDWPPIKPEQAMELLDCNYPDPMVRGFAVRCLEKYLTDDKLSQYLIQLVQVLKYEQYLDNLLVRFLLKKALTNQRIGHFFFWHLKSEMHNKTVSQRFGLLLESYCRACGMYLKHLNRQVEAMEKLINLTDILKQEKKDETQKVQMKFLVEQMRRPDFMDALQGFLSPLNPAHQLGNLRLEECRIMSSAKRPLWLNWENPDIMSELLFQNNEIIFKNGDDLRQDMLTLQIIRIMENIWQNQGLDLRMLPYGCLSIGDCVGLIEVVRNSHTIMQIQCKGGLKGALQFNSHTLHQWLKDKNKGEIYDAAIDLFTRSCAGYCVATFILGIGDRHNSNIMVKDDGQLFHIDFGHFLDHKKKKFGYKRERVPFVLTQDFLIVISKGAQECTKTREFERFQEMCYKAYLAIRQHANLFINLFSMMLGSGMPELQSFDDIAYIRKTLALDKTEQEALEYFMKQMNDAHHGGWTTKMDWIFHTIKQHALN
Sequence of PI3K-alpha (P27986 whole entry partner, species assumed): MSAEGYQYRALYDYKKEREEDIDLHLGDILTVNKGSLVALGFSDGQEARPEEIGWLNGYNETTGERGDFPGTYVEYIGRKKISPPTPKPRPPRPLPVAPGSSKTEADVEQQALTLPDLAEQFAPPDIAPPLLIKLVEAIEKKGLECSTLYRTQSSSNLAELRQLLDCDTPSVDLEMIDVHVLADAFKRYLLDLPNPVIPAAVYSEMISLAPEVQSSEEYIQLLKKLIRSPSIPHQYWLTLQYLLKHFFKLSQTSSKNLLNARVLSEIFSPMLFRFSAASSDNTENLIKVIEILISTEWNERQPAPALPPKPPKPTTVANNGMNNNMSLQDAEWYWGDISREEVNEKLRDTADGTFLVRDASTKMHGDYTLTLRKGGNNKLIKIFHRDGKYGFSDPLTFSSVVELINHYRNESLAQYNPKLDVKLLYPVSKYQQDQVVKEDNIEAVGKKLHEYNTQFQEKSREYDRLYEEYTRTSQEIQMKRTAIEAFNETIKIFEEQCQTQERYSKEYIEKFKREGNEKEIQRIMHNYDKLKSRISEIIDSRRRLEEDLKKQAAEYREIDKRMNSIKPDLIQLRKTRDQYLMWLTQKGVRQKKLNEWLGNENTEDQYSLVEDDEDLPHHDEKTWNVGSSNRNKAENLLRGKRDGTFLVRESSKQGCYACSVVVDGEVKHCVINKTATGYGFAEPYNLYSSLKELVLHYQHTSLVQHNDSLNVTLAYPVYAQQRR
Sequence of PI3K-gamma (P48736 whole entry, species assumed, the tested form may be a part): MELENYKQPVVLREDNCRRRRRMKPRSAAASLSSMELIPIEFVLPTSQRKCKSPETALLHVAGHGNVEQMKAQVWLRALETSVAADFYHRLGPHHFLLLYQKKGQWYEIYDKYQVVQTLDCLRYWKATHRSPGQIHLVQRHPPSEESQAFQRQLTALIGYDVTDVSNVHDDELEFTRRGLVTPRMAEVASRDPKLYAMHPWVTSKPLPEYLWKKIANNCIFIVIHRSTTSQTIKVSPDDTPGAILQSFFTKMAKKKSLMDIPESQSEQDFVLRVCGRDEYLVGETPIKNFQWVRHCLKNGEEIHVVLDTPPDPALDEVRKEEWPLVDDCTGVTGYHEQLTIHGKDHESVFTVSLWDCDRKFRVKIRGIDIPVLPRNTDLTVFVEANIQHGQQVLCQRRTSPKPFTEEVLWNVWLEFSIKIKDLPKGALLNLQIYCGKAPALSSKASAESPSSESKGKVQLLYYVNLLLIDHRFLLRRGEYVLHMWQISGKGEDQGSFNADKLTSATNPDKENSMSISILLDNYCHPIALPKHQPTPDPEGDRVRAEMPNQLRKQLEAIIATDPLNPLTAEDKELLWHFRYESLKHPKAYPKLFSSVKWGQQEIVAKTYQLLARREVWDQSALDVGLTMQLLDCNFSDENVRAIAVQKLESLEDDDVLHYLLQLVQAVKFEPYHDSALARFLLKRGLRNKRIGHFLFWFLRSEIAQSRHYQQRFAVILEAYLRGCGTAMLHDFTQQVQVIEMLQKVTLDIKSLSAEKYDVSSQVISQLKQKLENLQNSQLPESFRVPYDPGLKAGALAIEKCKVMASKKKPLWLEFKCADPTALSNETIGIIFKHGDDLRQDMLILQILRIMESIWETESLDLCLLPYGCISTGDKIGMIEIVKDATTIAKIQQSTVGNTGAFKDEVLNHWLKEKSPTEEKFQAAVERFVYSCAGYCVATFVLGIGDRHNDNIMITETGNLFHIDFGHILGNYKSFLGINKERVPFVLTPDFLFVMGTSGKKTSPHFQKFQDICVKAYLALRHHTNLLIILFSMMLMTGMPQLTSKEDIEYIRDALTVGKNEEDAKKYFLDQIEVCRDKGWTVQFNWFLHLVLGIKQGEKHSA

What is called IC50 is the concentration needed to halve the response being measured. As for `COc1ccc2c(c1)c(/C=C1\Oc3ccc(NC(=O)Nc4cccnc4)cc3C1=O)c(C)n2CCN1CCN(C)CC1` [Compound 617, 1-[(2Z)-2-({5-methoxy-2-methyl-1-[2-(4-methylpiperazin-1-yl)ethyl]-1H-indol-3-yl}methylidene)-3-oxo-2,3-dihydro-1-benzofuran-5-yl]-3-pyridin-3-ylurea], the figures for the IC50 on PI3K-alpha, at PI3K-gamma (PI3Kγ Avg. IC50) and at human TOR were 0.0019 µM, 0.246 µM and 0.058 µM, respectively.

As to `CNC(=O)Nc1ccc2c(c1)C(=O)/C(=C/c1c(-c3nc(C(C)C)no3)n(CCN3CCN(C)CC3)c3ccc(OC)cc13)O2` [Compound 621, 1-[(2Z)-2-({5-methoxy-2-[3-(1-methylethyl)-1,2,4-oxadiazol-5-yl]-1-[2-(4-methylpiperazin-1-yl)ethyl]-1H-indol-3-yl}methylidene)-3-oxo-2,3-dihydro-1-benzofuran-5-yl]-3-methylurea], the values for the IC50 on PI3K-alpha, on PI3K-gamma (read-out: PI3Kγ Avg. IC50) and on human TOR were 0.0035 µM, 0.355 µM and 0.225 µM, respectively.

For `CNC(=O)Nc1ccc2c(c1)C(=O)/C(=C/c1c(C(=O)NC(C)(C)CO)[nH]c3ccc(OC)cc13)O2` [Compound 622, N-(2-hydroxy-1,1-dimethylethyl)-5-methoxy-3-[(Z)-{5-[(methylcarbamoyl)amino]-3-oxo-1-benzofuran-2(3H)-ylidene}methyl]-1H-indole-2-carboxamide], the IC50 on PI3K-alpha came to 0.008 µM; against PI3K-gamma (PI3Kγ Avg. IC50), 0.039 µM; on human TOR, 0.096 µM.

In the case of `CNC(=O)Nc1ccc2c(c1)C(=O)/C(=C/c1c(-c3c(C)noc3C)n(CCN3CCN(C)CC3)c3ccc(OC)cc13)O2` [Compound 623, 1-[(2Z)-2-({2-(3,5-dimethylisoxazol-4-yl)-5-methoxy-1-[2-(4-methylpiperazin-1-yl)ethyl]-1H-indol-3-yl}methylidene)-3-oxo-2,3-dihydro-1-benzofuran-5-yl]-3-methylurea], the IC50 on PI3K-alpha was 0.0085 µM; against PI3K-gamma (PI3Kγ Avg. IC50), 0.296 µM; on human TOR it was 0.06 µM.

Consider `CNC(=O)Nc1ccc2c(c1)C(=O)/C(=C/c1c(-c3ccc(CN(C)C)cc3)[nH]c3ccc(OC)cc13)O2` [Compound 624, 1-{(2Z)-2-[(2-{4-[(dimethylamino)methyl]phenyl}-5-methoxy-1H-indol-3-yl)methylidene]-3-oxo-2,3-dihydro-1-benzofuran-5-yl}-3-methylurea], for which the IC50 on PI3K-alpha stood at 0.0021 µM; on PI3K-gamma (PI3Kγ Avg. IC50), 0.023 µM; on human TOR it was 0.057 µM.

On to `CNC(=O)Nc1ccc2c(c1)C(=O)/C(=C/c1c(-c3c(C)n[nH]c3C)[nH]c3ccc(OC)cc13)O2` [Compound 625, 1-[(2Z)-2-{[2-(3,5-dimethyl-1H-pyrazol-4-yl)-5-methoxy-1H-indol-3-yl]methylidene}-3-oxo-2,3-dihydro-1-benzofuran-5-yl]-3-methylurea], for which the IC50 at PI3K-alpha is 0.0002 µM; against PI3K-gamma (PI3Kγ Avg. IC50), 0.0047 µM; on human TOR, 0.001 µM.

Consider `Cc1c(C=C2Oc3cc(O)cc(O)c3C2=O)c2ccccc2n1C` [Example 247, 2-[(1,2-dimethyl-1H-indol-3-yl)methylene]-4,6-dihydroxy-1-benzofuran-3(2H)-one], for which the IC50 stood at 3.15 µM on PI3K-alpha and 2.9 µM at human TOR.

Turning to `Cn1cc(C=C2Oc3cc(O)cc(O)c3C2=O)c2cccc(Br)c21` [Example 249, 2-[(7-bromo-1-methyl-1H-indol-3-yl)methylene]-4,6-dihydroxy-1-benzofuran-3(2H)-one], the values for the IC50 on PI3K-alpha and at human TOR were 4.81 µM and over 20 µM, respectively.

Consider `COC(=O)c1cccc2c(C=C3Oc4cc(O)cc(O)c4C3=O)cn(C)c12` [Example 250, methyl 3-[(4,6-dihydroxy-3-oxo-1-benzofuran-2(3H)-ylidene)methyl]-1-methyl-1H-indole-7-carboxylate], for which the IC50 is 3.55 µM on PI3K-alpha and over 20 µM on human TOR.

In the case of `COc1cccc2c(C=C3Oc4cc(O)cc(O)c4C3=O)cn(C)c12` [Example 251, 4,6-dihydroxy-2-[(7-methoxy-1-methyl-1H-indol-3-yl)methylene]-1-benzofuran-3(2H)-one], the IC50 on PI3K-alpha was 2.39 µM; at human TOR it was over 20 µM.

Take `Cn1cc(C=C2Oc3cc(O)cc(O)c3C2=O)c2c(Cl)cccc21` [Example 252, 2-[(4-chloro-1-methyl-1H-indol-3-yl)methylene]-4,6-dihydroxy-1-benzofuran-3(2H)-one]: the half-maximal inhibitory concentration (IC50) was 0.555 µM on PI3K-alpha and 1.5 µM at human TOR.

Regarding `Cn1cc(C=C2Oc3cc(O)cc(O)c3C2=O)c2c(Br)cccc21` [Example 253, 2-[(4-bromo-1-methyl-1H-indol-3-yl)methylene]-4,6-dihydroxy-1-benzofuran-3(2H)-one], the IC50 at PI3K-alpha came out at 1.43 µM; at human TOR it was 3.3 µM.

On to `Cn1cc(C=C2Oc3cc(O)cc(O)c3C2=O)c2c(O)cccc21` [Example 254, 4,6-dihydroxy-2-[(4-hydroxy-1-methyl-1H-indol-3-yl)methylene]-1-benzofuran-3(2H)-one], for which the IC50 on PI3K-alpha is 1.66 µM; on human TOR, 0.65 µM.

As to `COc1cccc2c1c(C=C1Oc3cc(O)cc(O)c3C1=O)cn2C` [Example 255, 4,6-dihydroxy-2-[(4-methoxy-1-methyl-1H-indol-3-yl)methylene]-1-benzofuran-3(2H)-one], the IC50 stood at 2.46 µM on PI3K-alpha and 0.3 µM at human TOR.

As to `Cn1cc(C=C2Oc3cc(O)cc(O)c3C2=O)c2c(OCc3ccccc3)cccc21` [Example 256, 2-{[4-(benzyloxy)-1-methyl-1H-indol-3-yl]methylene}-4,6-dihydroxy-1-benzofuran-3(2H)-one], the IC50 is over 10 µM at PI3K-alpha and 0.28 µM at human TOR.

With `Cn1c(-c2ccc(OCc3ccccc3)cc2)c(C=C2Oc3cc(O)cc(O)c3C2=O)c2ccccc21` [Example 260, 2-({2-[4-(benzyloxy)phenyl]-1-methyl-1H-indol-3-yl}methylene)-4,6-dihydroxy-1-benzofuran-3(2H)-one], the IC50 on PI3K-alpha is 1.67 µM; at human TOR, 4.5 µM.

As for `CC(C)Oc1ccc(-c2c(C=C3Oc4cc(O)cc(O)c4C3=O)c3ccccc3n2C)cc1` [Example 261, 4,6-dihydroxy-2-{[2-(4-isopropoxyphenyl)-1-methyl-1H-indol-3-yl]methylene}-1-benzofuran-3(2H)-one], the IC50 at PI3K-alpha is 1.98 µM; at human TOR, 0.68 µM.

On to `N#Cc1cccc2c1c(C=C1Oc3cc(O)cc(O)c3C1=O)cn2CCN1CCOCC1` [Example 262, 3-[(4,6-dihydroxy-3-oxo-1-benzofuran-2(3H)-ylidene)methyl]-1-(2-morpholin-4-ylethyl)-1H-indole-4-carbonitrile], for which the IC50 was over 10 µM on PI3K-alpha and 0.42 µM on human TOR.

For `N#Cc1cccc2c1c(C=C1Oc3cc(O)cc(O)c3C1=O)cn2Cc1ccncc1` [Example 263, 3-[(4,6-dihydroxy-3-oxo-1-benzofuran-2(3H)-ylidene)methyl]-1-(pyridin-4-ylmethyl)-1H-indole-4-carbonitrile], the IC50 stood at 1.68 µM at PI3K-alpha and 0.26 µM on human TOR.

As for `N#CCCCn1cc(C=C2Oc3cc(O)cc(O)c3C2=O)c2c(C#N)cccc21` [Example 264, 1-(3-cyanopropyl)-3-[(4,6-dihydroxy-3-oxo-1-benzofuran-2(3H)-ylidene)methyl]-1H-indole-4-carbonitrile], the IC50 on PI3K-alpha came out at 3.93 µM; on human TOR, 1.7 µM.

In the case of `CN(C)CCn1cc(C=C2Oc3cc(O)cc(O)c3C2=O)c2c(C#N)cccc21` [Example 265, 3-[(4,6-dihydroxy-3-oxo-1-benzofuran-2(3H)-ylidene)methyl]-1-[2-(dimethylamino)ethyl]-1H-indole-4-carbonitrile], the IC50 is over 10 µM at PI3K-alpha and 1.3 µM at human TOR.

For `COCCn1cc(C=C2Oc3cc(O)cc(O)c3C2=O)c2c(C#N)cccc21` [Example 266, 3-[(4,6-dihydroxy-3-oxo-1-benzofuran-2(3H)-ylidene)methyl]-1-(2-methoxyethyl)-1H-indole-4-carbonitrile], the IC50 was found to be 0.29 µM at PI3K-alpha and 0.81 µM on human TOR.

`COC(=O)c1cccc2c1c(C=C1Oc3cc(O)cc(O)c3C1=O)cn2C` [Example 267, methyl 3-[(4,6-dihydroxy-3-oxo-1-benzofuran-2(3H)-ylidene)methyl]-1-methyl-1H-indole-4-carboxylate]: the IC50 came to 2.06 µM at PI3K-alpha and 0.086 µM on human TOR.

Turning to `O=C1/C(=C/c2c(-c3ccc4ccccc4c3)[nH]c3ccccc23)Sc2ccc(Cl)cc21` [Example 285, (2Z)-5-chloro-2-{[2-(2-naphthyl)-1H-indol-3-yl]methylene}-1-benzothiophen-3(2H)-one], the results for the IC50 at PI3K-alpha and on human TOR were over 10 µM and over 20 µM, respectively.

Regarding `COc1ccc(-c2cccc3c2c(/C=C2\Oc4cc(O)cc(O)c4C2=O)cn3C)cn1` [Example 369, (2Z)-4,6-Dihydroxy-2-{[4-(6-methoxypyridin-3-yl)-1-methyl-1H-indol-3-yl]methylene}-1-benzofuran-3(2H)-one], the IC50 was determined as 1.05 µM at PI3K-alpha and 0.0845 µM at human TOR.

Take `CNC(=O)Nc1ccc2c(c1)O/C(=C\c1cn(CCCN(C)C)c3ccc(OC)cc13)C2=O` [Example 406, 1-(2Z)-[2-({1-[3-(Dimethylamino)propyl]-5-methoxy-1H-indol-3-yl}methylene)-3-oxo-2,3-dihydro-1-benzofuran-6-yl]-3-methyl urea]: the concentration for half-maximal inhibition (IC50) on PI3K-gamma (PI3Kγ Avg. IC50) is over 10 µM; on human TOR, over 20 µM.

Consider `COc1ccc2c(c1)c(/C=C1\Oc3c(ccc(O)c3C)C1=O)c(C)n2CCCN(C)C` [Example 450, (2Z)-2-({1-[3-(Dimethylamino)propyl]-5-methoxy-2-methyl-1H-indol-3-yl}methylene)-6-hydroxy-7-methyl-1-benzofuran-3(2H)-one], for which the figures for the IC50 at PI3K-alpha and on human TOR were 0.662 µM and over 20 µM, respectively.
